The subject of one test is influenza A virus A/Aichi/2/68 (H3N2) on MDCK cells. Put plainly: Cytopathic effect (CPE) assay. In kind it is cell-based.
Conditions: not given
For `COC(=O)c1nc(CC2CCCCC2)n(C)c(=O)c1O`, the “CPE result in words” value was “inactive”.

Regarding `O=C(NCc1ccccc1)c1nc(Cc2ccccc2-c2ccccc2)nc(O)c1O`, the “CPE result in words” value is “inactive”.

As to `Cn1c(NS(=O)(=O)Cc2ccc(Cl)cc2)nc(C(=O)O)c(O)c1=O`, the “CPE result in words” value was “inactive”.

For `NC(=O)c1nc(Cc2ccc(F)cc2Br)nc(O)c1O`, the “CPE result in words” value is “inactive”.

With `O=C(O)c1nc(Cc2ccccc2Br)nc(O)c1O`, the “CPE result in words” value was “inactive”.

Regarding `CNC(=O)c1nc(Cc2ccccc2-c2cc(C)ccc2C)nc(O)c1O`, the “CPE result in words” value was “inactive”.

With `O=C(O)c1nc(CC(c2ccccc2)c2ccccc2)nc(O)c1O`, the “CPE result in words” value was “inactive”.

With `CCOC(=O)c1nc(Cc2cncn2Cc2ccccc2)nc(O)c1O`, the “CPE result in words” value was “inactive”.

In the case of `CC(C)NC(=O)c1nc(Cc2ccccc2-c2ccccc2)n(C)c(=O)c1O`, the “CPE result in words” value is “inactive”.

With `O=C(NCc1ccc(Cl)cc1)c1nc(Cc2ccccc2-c2ccccc2)nc(O)c1O`, the “CPE result in words” value was “inactive”.

For `CCOC(=O)c1nc(CC2CCCCC2)nc(O)c1O`, the “CPE result in words” value is “inactive”.

`CNC(=O)c1nc(NS(=O)(=O)Cc2cccc(C)c2)n(C)c(=O)c1O`: the “CPE result in words” value was “inactive”.

For `O=C(NCc1ccc(Cl)cc1)c1nc(Cc2ccccc2Br)nc(O)c1O`, the “CPE result in words” value is “inactive”.

On to `CNC(=O)c1nc(Cc2ccccc2-c2ccccc2)nc(O)c1O`, for which the “CPE result in words” value was “inactive”.

Regarding `CNC(=O)c1nc(Cc2ccccc2Br)nc(O)c1O`, the “CPE result in words” value was “inactive”.

For `COC(=O)c1nc(Cc2ccccc2Br)nc(O)c1OC(C)=O`, the “CPE result in words” value is “inactive”.

For the compound `O=C(O)c1c(O)c(=O)nc(Cc2ccccc2)n1Cc1ccccc1`, the “CPE result in words” value was “inactive”.

As for `COC(=O)c1nc(Cc2ccccc2-c2ccccc2C)nc(O)c1O`, the “CPE result in words” value is “inactive”.

On to `O=C(NCc1ccc(F)cc1)c1nc(Cc2ccccc2Br)nc(O)c1O`, for which the “CPE result in words” value was “inactive”.

As to `Cc1cccc(-c2ccccc2Cc2nc(O)c(O)c(C(=O)O)n2)c1`, the “CPE result in words” value was “inactive”.

In the case of `O=C(O)c1nc(Cc2ccccc2-c2ccccc2)nc(O)c1O`, the “CPE result in words” value is “inactive”.

On to `O=C(O)c1c(O)c(=O)nc(Cc2ccccc2Br)n1Cc1ccccc1`, for which the “CPE result in words” value is “inactive”.

Regarding `CNC(=O)c1nc(NS(=O)(=O)Cc2ccc(Cl)cc2)n(C)c(=O)c1O`, the “CPE result in words” value was “inactive”.

`COC(=O)c1nc(Cc2ccc(F)cc2Br)nc(O)c1O`: the “CPE result in words” value is “inactive”.

Turning to `Cn1c(Cc2ccccc2-c2ccccc2)nc(C(N)=O)c(O)c1=O`, the “CPE result in words” value is “inactive”.

`CNC(=O)c1nc(NS(=O)(=O)Cc2ccc(C)cc2)n(C)c(=O)c1O`: the “CPE result in words” value is “inactive”.

On to `O=C(O)c1nc(Cc2ccc(F)cc2Br)nc(O)c1O`, for which the “CPE result in words” value was “inactive”.

Turning to `Cc1ccccc1Cc1nc(O)c(O)c(C(=O)O)n1`, the “CPE result in words” value is “inactive”.

Regarding `Cc1ccc(C)c(-c2ccccc2Cc2nc(O)c(O)c(C(=O)O)n2)c1`, the “CPE result in words” value was “inactive”.

On to `O=C(O)c1nc(Cc2cc(C(F)(F)F)ccc2Br)nc(O)c1O`, for which the “CPE result in words” value is “inactive”.

Regarding `O=C(NCc1ccccc1)c1nc(CC2(c3ccccc3)CCCC2)nc(O)c1O`, the “CPE result in words” value is “inactive”.

`CNC(=O)c1nc(NS(=O)(=O)Cc2ccccc2)n(C)c(=O)c1O`: the “CPE result in words” value is “inactive”.

As to `CNC(=O)c1nc(Cc2ccccc2-c2ccccc2)n(C)c(=O)c1O`, the “CPE result in words” value is “inactive”.

On to `Cn1c(CC2(c3ccccc3)CCCC2)nc(C(=O)O)c(O)c1=O`, for which the “CPE result in words” value was “inactive”.

For the compound `O=C(O)c1nc(CC2CCCCC2)nc(O)c1O`, the “CPE result in words” value was “inactive”.

For the compound `COC(=O)c1c(O)c(=O)nc(Cc2ccccc2)n1Cc1ccccc1`, the “CPE result in words” value is “inactive”.

With `Cn1c(Cc2ccccc2-c2ccccc2)nc(C(=O)O)c(O)c1=O`, the “CPE result in words” value was “inactive”.

As for `Cc1ccccc1-c1ccccc1Cc1nc(O)c(O)c(C(=O)O)n1`, the “CPE result in words” value is “inactive”.

Consider `CNC(=O)c1nc(CC2CCCCC2)nc(O)c1O`, for which the “CPE result in words” value was “inactive”.

The same test, now with this note: Influenza A virus, H3N2, MDCK, in Canis lupus familiaris, 48 h.
Usually IC50 stands for the concentration that gives 50% inhibition. Low readings indicate higher potency, high ones lower potency. Consider `COC(=O)c1nc(Cc2ccccc2-c2cc(C)ccc2C)nc(O)c1O`, for which the concentration for half-maximal inhibition (IC50) came to 16 µM. In other words, the double-digit micromolar range.

The compound `O=C(NCCc1ccccc1)c1nc(Cc2ccccc2-c2ccccc2)nc(O)c1O` displayed an IC50 of 8 µM. This IC50 lies about 2-fold lower than the previous one.

Take `NC(=O)c1nc(CC2(c3ccccc3)CCCC2)nc(O)c1O`: the IC50 is 42 µM.

`O=C(NCc1ccc(F)cc1)c1nc(Cc2ccccc2-c2ccccc2)nc(O)c1O` showed an IC50 of 10 µM.

As to `CC(C)NC(=O)c1nc(Cc2ccccc2-c2ccccc2)nc(O)c1O`, the IC50 amounted to 23 µM.

As for `O=C(c1nc(Cc2ccccc2-c2ccccc2)nc(O)c1O)N1CCCC1`, the IC50 came to 89 µM.

In turn, `Cc1ccc(C)c(-c2ccccc2Cc2nc(O)c(O)c(C(=O)OC(C)(C)C)n2)c1` gave a 50% inhibitory concentration (IC50) of 0.11 µM.

With `COC(=O)c1nc(CC2(c3ccccc3)CCCC2)nc(O)c1O`, the IC50 worked out at 12 µM.

Take `COC(=O)c1c(O)c(=O)nc(Cc2ccccc2Br)n1Cc1ccccc1`: it took 34 µM to reach half-maximal inhibition (IC50).

In turn, `CNC(=O)c1nc(CC2(c3ccccc3)CCCC2)nc(O)c1O` displayed a 50% inhibitory concentration (IC50) of 22 µM.

Turning to `CCOC(=O)c1nc(Cc2ccccc2-c2cc(C)ccc2C)nc(O)c1O`, the IC50 is 9.1 µM. Compared with the last compound, the IC50 is about 2.4-fold lower.

As for `O=C(O)c1nc(CC2(c3ccccc3)CCCC2)nc(O)c1O`, the IC50 came out at 49 µM.

Regarding `CNC(=O)c1nc(CC2(c3ccccc3)CCCC2)n(C)c(=O)c1O`, the half-inhibitory concentration (IC50) was determined as 11 µM.

The values above are taken from patent US8921388B2, “Dihydroxypyrimidine carbonic acid derivatives and their use in the treatment, amelioration or prevention of a viral disease” (priority 2012, dated 2014).
